Laboratory results: US20250355005A1, “System and Method for Drug-Related Data Collection and Analysis” (FloBio LLC, priority 2023, published 2025)

Test system: blood sample (fibrin and platelet accumulation at collagen/tissue factor reaction zone)
Assay: microfluidic flow assay of a blood sample treated with different doses of DOAC, fibrin and platelet fluorescence signal at two temperatures
Type: cell-based, human
Settings: increasing Rivaroxaban dose, in relation to the HBS control; 37° C. and 21° C.
Source text: Fibrin signal decreases as Rivaroxaban (R) dose is increased, in relation to the HBS control, as expected. As temperature increases, fibrin reactions initiate carlier, fibrin and platelet maximum rate of change increases (steeper slope), and fibrin and platelet signals are increased overall at the same point in time. The DOAC drug dose effect seen at higher temperatures follows similar dose behavior seen at lower temperatures. As illustrated in FIGS. 49A-49B, about a two-fold platelet signal increase at 400 s is seen, a substantial increase in maximum rate of change of fluorescence is also seen. […]
The device 100 can allow for up to eight unique conditions to be tested simultaneously. […] Estimated drug level can be determined through comparison to a fully attenuated sample and a fully reversed sample, in comparison to an IC50 drug response curve, linear regression, […] analysis or other statistical methodology. […]
The system can rely on direct fluorescence signals for analysis of the results at the collagen/tissue factor 112. Fresh whole blood (used within minutes of venous draw), AF594 fibrinogen label (fibrinogen from human plasma, Alexa Fluor™ 594 conjugate) and platelet MCA2588A488 label (mouse anti-human CD61, Alexa Fluor™ 488 conjugate) can be added to the device 100 and the direct fluorescence signals can be analyzed. […]

With `O=C(NC[C@H]1CN(c2ccc(N3CCOCC3=O)cc2)C(=O)O1)c1ccc(Cl)s1` [Rivaroxaban] the Fibrin signal was “decreases”.
